Laboratory results: US4283420A, “Pharmaceutically active cyclohexyl compounds and their preparation” (Labaz, priority 1978, dated 1981)
Like-named read-outs stand apart in the source and are kept apart here.

Tests used:
male OFl mice = assay: Pentetrazole seizure (mortality after i.p. pentetrazole 125 mg/kg); assay type: in vivo; settings: for ED50: Mus musculus, po, 0.25 h, read-out: Pentetrazole seizure, ED50; for Pentetrazole seizure, % protection: peroral, 15 minutes
Experimental: This test was carried out on batches of 10 male OFl mice which had fasted since the day before and were placed in individual cages, in accordance with the method of Cheymol (J.) Acta. Pharmacol., (1950), 2, 1-55.
The treatments were carried out perorally 15 minutes before intraperitoneal (i.p.) injection of a solution of pentetrazole (125 mg/kg).
The mortality is recorded 3 hours after this injection.
It is to be noted that the 50% effective doses (ED50), where these have been determined, were calculated by the method of MOOD (J. Am. Statist. Assoc., (1965), 60, 967-78).

male Swiss mice = assay: Maximum electrical seizure; assay type: in vivo; settings: for ED50: Mus musculus, po, 0.25 h, read-out: Maximum electrical seizure, ED50; for Maximum electrical seizure, % protection: peroral, 15 minutes
Source text: Maximum electrical seizure
The technique used is that recommended by GOODMAN (L. S.), SING-GREWALD (M.), BROWN (V. C.) and […] (E. A.), Am.
The animals tested are male Swiss mice grouped into batches of 10. The normal threshold of the electric shock which is capable of causing tonic extension of the front paws is first determined for each animal.

mouse = assay: Ouabain seizure; assay type: in vivo; settings: po, 0.25 h, read-out: Ouabain seizure, ED50
Experimental: Ouabain was administered intra-ventricularly at a dose of 5 γ/mouse in a volume of 0.02 ml.

mice [1] = assay: β-Mercaptopropionic acid seizure; assay type: in vivo; settings: Mus musculus, po, 0.25 h, read-out: β-Mercaptopropionic acid seizure, ED50
Experimental: β-Mercaptopropionic acid seizure
β-Mercaptopropionic acid is an inhibitor of glutamatedecarboxylase (GAD), which is an enzyme which catalyses the conversion of glutamate to γ-aminobutyric acid (GABA). Its action thus manifests itself in a lowering of the GABA level and the occurrence of general tonico-clonic seizures 3 to 4 minutes after it has been administered. β-Mercaptopropionic acid was administered to mice intraperitoneally at a dose of 40 mg/kg.

mice [2] = assay: Anoxia as a result of confinement; assay type: in vivo; settings: Mus musculus, ip, read-out: Anoxia as a result of confinement, % increase in the survival time
Experimental: Anoxia as a result of confinement
Mice (in batches of 20) are placed in a 200 cm^3 hermetically sealed chamber (a wide-mouthed glass vessel) which is under normal pressure and has a normal content of atmospheric oxygen. All of the treatments are administered intraperitoneally immediately before introduction into the chamber. The animal is considered to be dead at the moment when breathing stops.
Since the wide-mouthed vessels chosen are very small, the motor activity of the animals is extremely low and this eliminates, in principle, the possibility of a positive result due to a sedative effect.
Therefore, the percentage increase in the survival time of the treated animals is noted, relative to the batch.

male mice = assay: Sedative activity: Rotarod test; assay type: in vivo; settings: peroral, mice
Experimental: (§1) This test is used for the purpose of assessing the ability of the animals to coordinate their movements. It uses a wooden cylinder which has a diameter of 4.8 cm and revolves at a speed of 4 revolutions/minute. The test is carried out on male mice weighing about 22 g. The products are administered perorally (p.o.) to batches of 10 animals per dose. The animals are placed on the apparatus 15 minutes after administration of the product. The percentage of mice which lose their equilibrium reflex, that is to say which become incapable of retaining their balance on the cylinder for a period of 2 minutes, is noted.
(§2) Using the regression straight line method, a 50% neurotoxic dose (NTD 50) is calculated, which thus expresses the average level of the first neuromuscular effects under the influence of the studied product.

Acute toxicity, peroral = settings: mouse, in vivo, po
Experimental: In order to locate the boundary separating the pharmacological effects from the toxicity of the products, a very approximate assessment of the toxicity was carried out on mice (batches of 10 animals) after peroral treatment.

[3] = Sedative activity: Rotarod test; assay type: in vivo, mice (male); settings: mouse, in vivo, po
Experimental: as §1, §2

[4] = Table IV, mice, measured 15 minutes after peroral treatment
[5] = mice, measured 15 minutes after peroral treatment
[6] = ouabain 5 γ/mouse intra-ventricularly, measured 15 minutes after peroral treatment
[7] = β-mercaptopropionic acid 40 mg/kg i.p., mice, 15 minutes after peroral treatment

C=C(Cl)CC1(C(=O)O)CCCCC1 [Example 19]
ED50 (male OFl mice; [4]): 94 mg/kg | ED50 (male Swiss mice; [5]): 366 mg/kg | ED50 (mouse; [6]): 579 mg/kg | ED50 (mice [1]; [7]): 300 mg/kg | ILS at 240 mg/kg (mice [2]; at 240 mg/kg, intraperitoneal, mice): 45% | Rotarod test, % of failures (male mice; at 700 mg/kg): 30% | mortality (Acute toxicity, peroral; 1100 mg/kg): 10%

CC(=O)CC1(C(=O)[O-])CCCCC1.[Na+] [Example 46, Sodium 1-acetonyl-1-cyclohexyl-carboxylate]
ED50 (male OFl mice): 300 mg/kg | ED50 (mouse; [6]): > 900 mg/kg | ED50 (mice [1]; [7]): 270 mg/kg | Rotarod test, % of failures (male mice; at 600 mg/kg): 0%

C=CCC1(C(=O)[O-])CCCCC1.[Na+] [Example 22, Sodium 1-allyl-1-cyclohexyl-carboxylate]
ED50 (male OFl mice): 154 mg/kg | Maximum electrical seizure, % protection (male Swiss mice; at 200 mg/kg, mice): 80% | ED50 (mouse; [6]): 638 mg/kg | ILS at 240 mg/kg (mice [2]): 59% | Rotarod test, % of failures (male mice; at 600 mg/kg): 20%

COCC1(C(=O)O)CCCCC1 [Example 55]
ED50 (male OFl mice; [4]): 190 mg/kg | Maximum electrical seizure, % protection (male Swiss mice; at 190 mg/kg, mice): 0% | ED50 (mouse; [6]): 950 mg/kg | Rotarod test, % of failures (male mice; at 600 mg/kg): 0%

C#CCC1(C(=O)[O-])CCCCC1.[Na+]
ED50 (male OFl mice): 120 mg/kg | ED50 (male Swiss mice): 478 mg/kg | ED50 (mouse; Mus musculus): 507 mg/kg | ED50 (mice [1]): 245 mg/kg | ILS at 280 mg/kg (mice [2]): 48% | Rotarod test, % of failures (male mice; at 550 mg/kg): 40% | mortality (Acute toxicity, peroral; at 950 mg/kg, peroral, mice): 10%

C=C(Cl)C1(C(=O)O)CCCCC1 [Example 18]
Pentetrazole seizure, % protection (male OFl mice; at 200 mg/kg, mice): 40% | ED50 (mouse; [6]): 851 mg/kg | ILS at 260 mg/kg (mice [2]; at 260 mg/kg, intraperitoneal, mice): 40% | Rotarod test, % of failures (male mice; at 600 mg/kg): 0%

C#CC1(C(=O)O)CCCCC1 [Example 17]
Pentetrazole seizure, % protection (male OFl mice; at 170 mg/kg, mice): 30% | Maximum electrical seizure, % protection (male Swiss mice; at 170 mg/kg, mice): 13% | ED50 (mouse; [6]): 933 mg/kg | ILS at 210 mg/kg (mice [2]; at 210 mg/kg, intraperitoneal, mice): 23% | Rotarod test, % of failures (male mice; at 500 mg/kg): 0%

CC(C)C1(C(N)=O)CCCCC1 [Example 29]
ED50 (male OFl mice; [4]): 15 mg/kg | ED50 (male Swiss mice; [5]): 70 mg/kg | ED50 (mouse; [6]): 31 mg/kg | ED50 (mice [1]; [7]): 12 mg/kg | ILS at 25 mg/kg (mice [2]; at 25 mg/kg, intraperitoneal, mice): 16% | TD50 at 0.25 h [3]: 35 mg/kg | mortality (Acute toxicity, peroral; 500 mg/kg): 100%
